Assay results as given in US20130109049A1, “Method of Establishing a Fungal Nail Infection” (NOVABIOTICS LIMITED, priority 2009, published 2013).
Converted amounts (≈) assume the structure as drawn. Blank lines part the entries; values can stand above or below the compound they belong to. Non-standard residues stand in square brackets, D forms with d. No end group written: not given here.

Assays:
Candida = assay: Ex vivo human nail fragment model, treatment of Candida infection; assay type: cell-based
From the text: Trichophyton rubrum strain NCPF0118 was obtained from the National Collection of Pathogenic Fungi, Bristol, UK. Clinical isolates of T. rubrum DM2006 1661, T. rubrum DM2006 1358, T. mentagrophytes DM2006 1503, T. mentagrophytes DM2006 1498 were isolated from patients suffering a range of tinea infections and were purchased from Professor Michel Monod (Service de Dermatologie, Université de Lausanne, Switzerland). Clinical isolates of Candida samples were also obtained from patients suffering from Candidal infection.
The procedure was carried out as described for Example 1 above with modifications to the vehicle, and fungal strains used. Each nail was inoculated with 10 μl of a spore suspension of Candida. Following inoculation the nails were treated with 10% (w/v) Novexatin® (NP213) in a vehicle solution of 50% (w/v) PEG 8000 plus 20% (w/v) urea; 10% (w/v) NP339 in a vehicle solution of 50% (w/v) PEG 8000 plus 20% (w/v) urea; 10% (w/v) NP339 in a vehicle solution of water; a control solution of 50% (w/v) PEG 8000 plus 20% (w/v) urea; a control solution of water; a solution of 16 μg/ml Itraconazole® and 1.6% (w/v) DMSO in a vehicle solution of water and a control solution of 1.6% (w/v) DMSO. As for Experiment 1 above, nail fragments were treated daily for up to 28 days. […]
At the end of the treatment period, the nail fragments were placed in sterile 2 ml microcentrifuge tubes containing 450 μl of a suspension broth consisting of Sabouraud's Liquid Medium, pH 5.6, containing approximately 100 mg of sterile zirconia beads (0.5 mm diameter). […] Colonies were counted on dishes that contained between 20 and 200 colonies in total, and the total number of cfu present in each sample was calculated. […] The counts were corrected for the surface area of the nails studied to give cfu/cm^2, transformed to log10 and means and standard errors of the mean were calculated using GraphPad Prism 4 (GraphPad, San Diego, Calif.). […] When very low numbers of colonies were detected, as in Experiment 3, the calculated cfu values are shown in order to indicate trends.

T. rubrum NCPF0118 = assay: In vitro MIC100 testing; assay type: cell-based, Trichophyton rubrum; conditions: Trichophyton rubrum; versus T. rubrum NCPF0118 in vitro; read-out: concentration equal to 100× the MIC100
[1] = test system: Trichophyton rubrum strain NCPF0118; assay: Ex vivo human nail fragment model, treatment of established infection (cfu recovered); assay type: cell-based; conditions: Experiment 5; fluconazole at approximately 100×MIC100; 14 d and 28 d, daily
Procedure: For antifungal efficacy studies with human toe nails, a solution of 50% (w/v) PEG 8000 (Sigma-Aldrich; Cat No P2139) was prepared by autoclaving and then diluting with sterile 50% (w/v) urea solution (Sigma-Aldrich; Cat No 51457). This solution was mixed thoroughly by vortexing and allowed to stabilise at 50° C. for up to 2 h. After stabilisation, the temperature was allowed to drop to below 40° C. and a concentrated, filter-sterilised solution of Novexatin® (NP213), dissolved in deionised water was added. Final concentrations of PEG 8000 of 50% (w/v), urea of 0-20% (w/v) and Novexatin® (NP213) of 0-10% (w/v) were used in the experiments described below.
On arrival, the cultures were transferred to a Petri dish containing sterile Sabouraud Dextrose agar (Sigma-Aldrich; Cat No 84088, or equivalent) and grown for up to 7 d at 30° C. The resulting growth was scraped off and re-suspended in Sabouraud's liquid medium (Oxoid; Cat No CM 147, or equivalent) containing […] dimethyl sulfoxide (DMSO) as cryoprotectant to create a culture stock. The fungus was stored in 0.5 ml aliquots in 2 ml screw-capped polypropylene vials (Cryovials) at −80° C. Seven days prior to experimental use, 50 μl of the culture stock was used to inoculate a slope of Potato Dextrose agar (Merck; Cat No VM556130 609, or equivalent), which was incubated at 30° C. for up to 7 d. The surface of the resulting growth was gently perturbed in 3 ml of sterile distilled/deionised water. After filtration through 2 layers of sterile surgical gauze to remove debris and larger clumps of biomass, the absorbance of the resultant spore suspension was measured at 530 nm, then adjusted to the 0.5 MacFarland standard (OD approx. 0.15)^2.
Human toe nails were obtained from a podiatrist in Aberdeen following a successful application to the Grampian Local Research Ethics Committee. […] Large toe nails were cut into 4 pieces, each approximately 1 cm^2 in area, using nail clippers. Nails of normal thickness (≦2 mm) were chosen. The 4 fragments cut from each single nail were placed in quadrants marked on Petri-dishes containing phosphate buffered saline rendered solid with 1.2% (w/v) Technical Agar No. 3 (Oxoid; Cat No LP0013, or equivalent), subsequently referred to as PBS agar. The nail fragments were of irregular shape, so to ensure that each nail received the appropriate amount of the treatment solutions, the surface area was measured by photographing the nails over graph paper and determining the number of 1mm^2 squares covered by each nail. The thickness of the nails was measured with a micrometer and nails distributed among treatment groups, to avoid nail thickness providing an additional experimental variable.
Twenty four nail fragments from 6 whole large toenails were each inoculated with 10 μl of a spore suspension of T. rubrum NCPF0118 which was prepared as described above. The inoculum was applied to the ventral side of the nail (i.e. the side next to the skin in situ). The nails were incubated for 7 d at 30° C. to allow the fungus to infect the nail tissue. After this pre-incubation period, 12 of the fragments were assigned to each of 2 different treatment protocols, involving daily treatment with 2 different vehicle solutions, each containing a control and 3 different concentrations of Novexatin® (NP213). These vehicle solutions were: 50% (w/v) PEG 8000, and 50% (w/v) PEG 8000 plus 20% (w/v) urea. The concentrations of Novexatin® (NP213) studied were 0%, 1%, 5% and 10% (w/v). The solutions were applied at a volume of 10 μl/cm^2, corrected for the surface area of the different nail fragments as described above. The applied solution was spread over the dorsal side of the nail, to mimic the intended clinical treatment and the ventral side of the nail rested on the agar surface. Each time the nails were treated, they were transferred to a new sterile Petri dish containing PBS agar to minimise any build-up of fungal growth on the agar. Nail fragments were treated daily for 28 days. […]

Compound: CN(C/C=C/C#CC(C)(C)C)Cc1cccc2ccccc12 [Terbinafine®, [(2E)-6,6-dimethylhept-2-en-4-yn-1-yl](methyl)(naphthalen-1-ylmethyl)amine, reference compound]
outcome of treatment (Candida; Experiment 7, 10 μg/ml, 14 d and 28 d): unsuccessful

MIC (T. rubrum NCPF0118): 360 µg/mL (≈ 1180 µM)
Compound: OC(Cn1cncn1)(Cn1cncn1)c1ccc(F)cc1F [fluconazole, 2-(2,4-difluorophenyl)-1,3-bis(1H-1,2,4-triazol-1-yl)propan-2-ol, reference compound]
outcome of treatment [1]: unsuccessful

Compound: dRdRdRdRdRdRdRdRdRdRdRdRdR ([dR][dR][dR][dR][dR][dR][dR][dR][dR][dR][dR][dR][dR]) [NP339]
recoverable fungal growth after treatment (Candida; Experiments 6 and 7, 10% (w/v), 14 d or 28 d, daily): no recoverable fungal growth
